Assay results from patent US20210052546A1, “METHODS AND PHARMACEUTICAL COMPOSITIONS FOR THE TREATMENT OF FGFR3-RELATED CHONDRODYSPLASIAS” (INSERM (INSTITUT NATIONAL DE LA SANTÉ ET DE LA RECHERCHE …, priority 2018, published 2021).

Tests used:
[1] = test system: Fgfr3^Y367C/+ chondrocytes; test: Primary cilium length in antenatal E16.5 Fgfr3Y367C/+ chondrocytes (immunocytochemistry); format: cell-based, mice
Protocol: Cultured chondrocytes issued from Fgfr3^Y367C/+ were fixed at room temperature for 10 min in methanol (chilled at −20° C.), and then washed with PBS. Samples were permeabilized for 10 min with PBS containing 0.1% Triton-X100 (Sigma-Aldrich), then washed three times for 5 min. Samples were incubated with PBS containing 10% goat serum (Biowest) for 60 min at room temperature. Primary antibodies were incubated at 4° C. overnight. The following primary antibodies were used: mouse IgG1 anti-γ-tubulin (Sigma-Aldrich #T6557, 1:1000) and rabbit anti-Ar113b (Proteintech #177111-AP, 1:500). Cells were washed with PBS, and then incubated with goat anti-mouse IgG1 coupled with AlexaFluor 488 (Life Technologies, 1:1000) and goat anti-rabbit coupled with AlexaFluor 647 (Life Technologies, 1:1000) secondary antibodies for 2h at room temperature in the dark. Samples were extensively washed and mounted with a solution of DAPI-Fluoromount G (SouthernBiotech) containing DAPI (4′,6′-diamidino-2-phenylindole) for nuclear staining. Image acquisition were captured using a Spinning disk confocal microscope. […] In order to compare measured data, all confocal experiments showing PC length was acquired in same conditions using slice thickness of 0.20 μm and a pixel size of 60 nm. […] We next measured in 2D the PC lengths by IMARIS software (Bitplane).

growth plate cartilage = test: Histology and immunohistochemistry of growth plate cartilage of cultured femur explants; design: species or system mice
Protocol: In order to appreciate the impact of the treatment on the growth plate cartilage, we performed histological and immunohistological studies. We selected specific markers of the cartilage, SOX9 and Collagen type X, we tested the expression of the protein FGFR3 and we also evaluated the expression of the phosphorylated Erk1/2 proteins of the […] signalling and activated by FGFR3. Limb explants were fixed after culture in 4% paraformaldehyde at 4° C. and embedded in paraffin. Serial 5 μm sections were stained with Hematoxylin-Eosin using standard protocols for histological analysis or were subjected to immunohistochemical staining. For immunohistochemistry, sections were stained with antibodies specific to FGFR3 (1:100 dilution; Sigma), anti-Collagen type X (1:50 dilution; Quartett) anti-SOX9 (1:1000 dilution; Abcam), anti-phosphorylated Erk1/2 (1:100 dilution; Cell signaling) using the Dako Envision system kit. Images were captured with an Olympus PD70-IX2-UCB microscope.

Fgfr3^Y367C/+ femurs = test: Ex vivo femur cultures isolated from Fgfr3Y367C/+ mice
Protocol: (§1) Several sets of ex vivo experiments were performed as previously described (Jonquoy et al., Hum Mol Genet, 21: 841-851, 2012). Femur embryos at day E16.5 from Fgfr3^+/+ (n=23) and Fgfr3^Y367C/+ (n=16) mice were used and incubated for 6 days in DMEM medium with antibiotics and 0.2% BSA (Sigma) supplemented with cocoa F5 or (−)-epicatechin (Sigma-0394-05-90) or DMSO (as control) at a concentration of 10 and 30 μg/ml. To establish the effect of the inhibitors, the left femur was cultured in supplemented medium and compared with the right one cultured in control medium. The bone length was measured at the beginning (before treatment) and at the end of time course. The genotype of Fgfr3^+/+ and Fgfr3^Y367C/+ mice were determined by PCR of tail DNA as previously described (Pannier et al., Biochim Biophys Acta, 1792: 140-147, 2009). All experimental procedures and protocols were approved by the Animal Care and Use Committee.

Fgfr3^+/+ femurs = test: Ex vivo femur cultures isolated from Fgfr3+/+ mice
Protocol: as §1

[2] = proximal and distal femurs, immunohistochemistry

`Oc1cc(O)c2c(c1)O[C@H](c1ccc(O)c(O)c1)[C@H](O)C2` [(−)-epicatechin, (2R,3R)-2-(3,4-dihydroxyphenyl)-3,4-dihydro-2H-chromene-3,5,7-triol] was tested, and the “effect on primary cilium” value ([1]; Fgfr3Y367C/+ chondrocytes) was “elongation”, the “primary cilium average length (A)” value ([1]; Fgfr3Y367C/+ chondrocytes treated with (−)-epicatechin, n=113, N=3, mean+S.E.M., untreated 2.10+0.06, in µm) was 2.45+0.09 and the “reserve, proliferative and pre-hypertrophic zones of the growth plate cartilage” value (growth plate cartilage; H&E staining) was “increased”. For the same compound, the “whole growth plate cartilage” value (growth plate cartilage; H&E staining) was “improved”, the epiphysis size (growth plate cartilage; proximal and distal femur, histology) was “increase size” and the FGFR3 expression (growth plate cartilage; [2]) was “strongly decreased”. For the same compound, the SOX9 expression (growth plate cartilage; [2]) was “strongly decreased”, the “collagen type X expression” value (growth plate cartilage; [2]) was “not modified” and the “phosphorylated Erk1/2 expression” value (growth plate cartilage; [2]) was “slightly decreased”. For the same compound, the “size of the femurs, Fgfr3Y367C/+” value (Fgfr3^Y367C/+ femurs; 1 μg/ml (FIG. 13)) was “did not improve”, the “percentage of femur growth in Fgfr3Y367C/+ mice versus Fgfr3+/+ mice” value (Fgfr3^Y367C/+ femurs; 10 μg/ml, 6 days culture) was “more important” and the “increase of length of the Fgfr3Y367C/+ femurs comparing to Fgfr3+/+ femurs” value (Fgfr3^Y367C/+ femurs; 10 μg/ml, E16.5 femurs, 6 days culture) was “+10%”. For the same compound, the “size of the femurs, Fgfr3+/+” value (Fgfr3^+/+ femurs; 1 μg/ml (FIG. 13)) was “did not improve” and the “growth of the Fgfr3+/+ femurs” value (Fgfr3^+/+ femurs; 10 μg/ml, 6 days culture) was “did not impair”.
